Laboratory results from patent publication US20250025440A1, “COMPOSITIONS AND METHODS FOR MANAGEMENT OF HUMAN PAPILLOMA VIRUS-ASSOCIATED CANCERS” (LOMA LINDA UNIVERSITY, priority 2021, published 2025).

Key:
Type in all cases: cell-based
[1] = test system: HPV+ (SCC47, SCC090, SCC104, SCC152) and HPV- (SCC19, SCC29, SCC49, SCC84) HNSCC cell lines; assay: MTT cell viability, HNSCC panel
Description: While SAR studies using the SCC104 cell line provided evidence of the activity of the analogs, further studies were conducted to assess not just the potency, but also the selectivity. As a step towards that goal, the efficacy of GA-OH was evaluated in a panel containing both HPV^+ and HPV^− HNSCC cell lines using MTT cell viability assays. Four HPV^+ cell lines (SCC47, SCC090, SCC104, SCC152) and four HPV^− cell lines (SCC19, SCC29, SCC49, SCC84) were utilized. GA-OH behaved dose dependently in cell lines both with or without HPV. […] FIGS. 7A-7C are graphical representations of the sensitivity of HPV^+ cell lines and HPV^− cell lines to GA-OH-mediated growth inhibition. FIG. 7A is a graphical representation of the cell growth inhibition of HNSCC HPV^+ and HPV^− cell lines by GA-OH (+ and closed shapes represent HPV^+ cell lines and − and open shapes the HPV^− cell lines). […] These cells were good controls, as HPV is an established causative agent in CC carcinogenesis. Two HPV^+ cell lines, SiHa and CaSki were selected as the positive controls and the Saos-2 cell line was used as an HPV-negative control. […] FIG. 7B is a graphical representation of the cell growth inhibition of cervical cancer HPV^+ and HPV^− cell lines by GA-OH. HPV^+ cell lines display higher sensitivity than do HPV^− cell lines as shown by the leftwards shift of the HPV^+ curves (SCC47, 90, 104, 152 in FIG. 7A and SiHa and CaSki in FIG. 7B).
All working concentrations were diluted in PBS to the desired concentration before use. To test the effect of gambogic acid and/or its derivatives on cell viability, all cell lines were seeded at 2×10^4 per well in 96-well plates and allowed to adhere overnight. Various concentrations of the analogues were added and the cells incubated at 37° C. for 24 hr. Viability was then measured using the MTT assay, performed as described previously. […] Cell viability and potency were assessed from % inhibition relative to the vehicle control, and IC50 dose curves were generated using GraphPad Prism.

SCC104 (HPV+) = assay: Colony formation assay; conditions: SCC104, treated 24 hours
Description: (§1) For assessing the long-term effects on the survival of cells following GA-OH treatment, the colony formation assay (CFA) was performed. Two cell lines, SCC19 (HPV^−) and SCC104 (HPV^+) were used for this study. The cells were treated for 24 hours with GA-OH, and then seeded for assessment of colony formation. Cell survival data from this study mirrored the impact of GA-OH on cell viability of HPV^+ and HPV^− cell lines. […] FIG. 7C is a graphical representation of the effects of GA-OH on the clonogenicity of the surviving fractions of HPV^+ versus HPV^− cell lines.
(§2) Sub-confluent monolayer cells were treated with different doses of GA-OH for 24 hours. Cells were trypsinized and re-suspended before re-plating into 6 well plates in DMEM or MEM at 500-1000 cell densities, depending on the cell line. Cells were then allowed to grow for 10-20 days, depending on the cell line, before fixing and staining. A mixture of methanol/acetic acid was used for fixing, followed by 0.5% crystal violet staining. Plates were imaged using UV imager, and colonies with more than […] counted using image J. Surviving fractions were determined by dividing the number of colonies by the number of cells seeded as a product of the corresponding plating efficiency. Survival fractions curves were plotted using GraphPad Prism.

SCC19 (HPV-) = assay: Colony formation assay; conditions: SCC19, treated 24 hours
Description: as §1, §2

SCC47 (HPV+) = assay: Cell cycle analysis after irradiation (PI flow cytometry); conditions: SCC47, radiation (4Gy) followed by GA-OH, 24 hours
Description: Cells were treated with radiation (4Gy) followed by GA-OH before cell cycle analysis was performed using propidium iodide (PI) flow cytometry assay after 24 hours. FIGS. 15A-15B are graphical representations of the cell cycle analysis of SCC47 and SCC19 cell lines after irradiation and followed by treatment with control or with GA-OH, as measured by flow cytometry assays after 24 hours. In both cell lines, G2-M is the most affected stage of cell cycle and there is increase in G2-M arrested cells. The HPV^+ cell line—SCC47 has a higher proportion of cells that are still arrested in G2-M phase after 24 hours compared to the HPV^− cell line—SCC19. FIGS. 16A-16B are graphical representations of the fraction of G2-M arrested cells in SCC47 and SCC19 lines after irradiation and followed by treatment with control or with GA-OH, as measured by flow cytometry assays after 24 hours. […]
Kinetics of G2-M arrest when SCC47 and SCC19 are irradiated with or without GA-OH. […] FIGS. 17A-17B are graphical representations of the kinetics of G2-M arrest when SCC47 and SCC19 are irradiated and followed by treatment with control or with GA-OH, as measured by flow cytometry assays after 24 hours. […] Apoptosis analysis of SCC47 and SCC19 was performed after irradiation and followed by treatment with control or with GA-OH, as measured by flow cytometry assays after 24 hours. […]

Substance: 30-hydroxygambogic acid [GA-OH]
- potency and selectivity for HPV+ versus HPV- cells [1]: more potent and selective
- cell growth inhibition, sensitivity of HPV+ versus HPV- cell lines ([1]; MTT): displayed higher sensitivity
- number of colonies (SCC104 (HPV+)): significantly and dose-dependently reduced
- number of colonies (SCC19 (HPV-)): did not exhibit significant reduction relative to their control except at high concentrations
- G2-M arrest (SCC47 (HPV+)): increased arrest at 24 hours as compared to radiation alone
